As a reminder, the pIC50 is the IC50 on a negative log10 scale, so that one unit is a factor of ten.

The source of these data is US9550808B2, “Peptide inhibitors of nicotinic acetylcholine receptor” (LIMITED LIABILITY COMPANY SYNEURO, priority 2013, dated 2017).

The target in data set [1] is T1, muscle-type nicotinic acetylcholine receptor (α1, β1, δ and ε-subunits) (Homo sapiens, UniProt P02708+Q04844+Q07001).
T1 construct: expressed in transfected cells; host or cells: Xenopus laevis oocytes (nuclear injection of plasmids, CMV promoter)
T1 sequence (P02708 21-457): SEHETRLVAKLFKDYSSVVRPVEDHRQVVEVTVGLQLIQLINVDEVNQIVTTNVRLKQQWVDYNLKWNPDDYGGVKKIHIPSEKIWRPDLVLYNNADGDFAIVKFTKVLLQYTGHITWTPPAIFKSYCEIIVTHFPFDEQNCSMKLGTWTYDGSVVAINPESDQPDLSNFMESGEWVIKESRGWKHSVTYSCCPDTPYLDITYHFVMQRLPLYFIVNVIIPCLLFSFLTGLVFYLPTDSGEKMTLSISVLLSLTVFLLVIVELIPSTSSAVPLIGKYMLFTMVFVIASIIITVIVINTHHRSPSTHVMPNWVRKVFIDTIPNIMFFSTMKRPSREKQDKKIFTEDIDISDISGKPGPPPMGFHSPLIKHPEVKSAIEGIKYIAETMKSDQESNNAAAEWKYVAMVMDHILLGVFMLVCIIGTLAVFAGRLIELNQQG
T1 sequence (Q04844 21-493): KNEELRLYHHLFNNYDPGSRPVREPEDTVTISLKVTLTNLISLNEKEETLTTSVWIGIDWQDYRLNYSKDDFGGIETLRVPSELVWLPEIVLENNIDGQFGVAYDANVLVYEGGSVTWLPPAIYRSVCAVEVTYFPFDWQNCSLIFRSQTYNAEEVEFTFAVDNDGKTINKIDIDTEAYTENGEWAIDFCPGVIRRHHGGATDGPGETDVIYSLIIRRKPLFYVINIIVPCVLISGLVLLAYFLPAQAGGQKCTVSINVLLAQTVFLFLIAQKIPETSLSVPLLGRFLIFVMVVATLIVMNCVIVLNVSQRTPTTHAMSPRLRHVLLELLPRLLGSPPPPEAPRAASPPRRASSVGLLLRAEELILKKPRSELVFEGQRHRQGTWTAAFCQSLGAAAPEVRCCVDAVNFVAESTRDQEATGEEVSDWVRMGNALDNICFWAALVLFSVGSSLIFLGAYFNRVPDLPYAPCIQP
T1 sequence (P11230 24-501, further chain): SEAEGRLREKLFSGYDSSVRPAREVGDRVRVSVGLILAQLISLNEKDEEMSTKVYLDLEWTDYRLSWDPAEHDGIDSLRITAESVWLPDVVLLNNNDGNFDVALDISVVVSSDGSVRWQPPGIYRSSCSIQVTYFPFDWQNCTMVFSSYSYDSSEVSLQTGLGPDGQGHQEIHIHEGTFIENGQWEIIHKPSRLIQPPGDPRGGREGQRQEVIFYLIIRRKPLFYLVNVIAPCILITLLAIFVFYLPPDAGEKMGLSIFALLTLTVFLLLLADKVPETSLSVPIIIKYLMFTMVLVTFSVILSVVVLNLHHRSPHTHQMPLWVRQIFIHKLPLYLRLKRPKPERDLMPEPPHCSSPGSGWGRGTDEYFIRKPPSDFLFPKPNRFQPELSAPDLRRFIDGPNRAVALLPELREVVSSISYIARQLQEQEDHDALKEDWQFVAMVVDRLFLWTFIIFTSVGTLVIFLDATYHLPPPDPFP
T1 sequence (Q07001 22-517): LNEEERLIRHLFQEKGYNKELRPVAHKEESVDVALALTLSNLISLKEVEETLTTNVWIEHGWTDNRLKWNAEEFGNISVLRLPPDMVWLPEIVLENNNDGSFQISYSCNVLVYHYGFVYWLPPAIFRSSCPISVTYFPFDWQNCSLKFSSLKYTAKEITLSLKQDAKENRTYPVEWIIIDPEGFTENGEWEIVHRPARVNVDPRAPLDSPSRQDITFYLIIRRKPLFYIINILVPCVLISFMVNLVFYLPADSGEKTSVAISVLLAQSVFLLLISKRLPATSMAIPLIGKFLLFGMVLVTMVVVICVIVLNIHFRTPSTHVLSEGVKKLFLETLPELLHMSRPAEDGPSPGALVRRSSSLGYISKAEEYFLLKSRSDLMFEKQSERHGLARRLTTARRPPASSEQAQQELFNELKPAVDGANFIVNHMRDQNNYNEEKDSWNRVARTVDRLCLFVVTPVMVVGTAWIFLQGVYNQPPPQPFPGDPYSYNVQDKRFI
Put plainly: Inhibition of acetylcholine-induced current through muscle-type nAChR expressed in Xenopus laevis oocytes (two-electrode voltage clamp). Format: cell-based. As to conditions: for inhibiting activity towards the muscle receptor, retrosequences compared with initial Az3 and [Tyr2]Az3: 1 mM. A general note: Two-electrode voltage clamp holds a large cell at a set potential and records current.

For a further data set, the system named is mimic wrinkles. As to conditions: cited from earlier work.
The subject of another data set is male Balb mice. Put plainly: Acute toxicity in mice (intraperitoneal and per os). Format: in vivo. As to conditions: for acute toxicity after intraperitoneal administration: male Balb mice, 1, 3, 10 and 30 mg/kg i.p.; for acute toxicity per os (administration into the stomach): male Balb mice, 2.5, 10, 40, 160 mg/kg per os. How it is done:
Estimation of acute toxicity (LD50) after intraperitoneal administration of peptide H-Trp-Trp-Pro-Lys-Pro-OH (SEQ ID NO: 1) was carried out on 40 male Balb mice weighting 20-23 g, separated into five equal groups. Mice were intraperitoneally injected with the peptide at doses of 1 mg/kg, 3 mg/kg, 10 mg/kg and 30 mg/kg in 0.2 ml sterile 0.9% NaCl solution. Control animals were injected with same volume of 0.9% NaCl.
Investigation of acute toxicity (LD50 per os) after administration of the peptide directly into a stomach by a special catheter was conducted on 40 male Balb mice weighting 20-23 g. Animals were randomly divided into 5 groups. The drug was applied at doses 2.5 mg/kg, 10 mg/kg, 40 mg/kg, 160 mg/kg in 0.2 ml sterile solution of 0.9%. Control animals were injected with the same volume of 0.9% NaCl.

Where [2] appears, read: cream containing 5% Vialox, 28-day application.

pIC50: −log10 of the molar value. Non-standard residues stand in square brackets, D forms with d. Residues, ends and D or L forms follow the SMILES beside them. *: point of attachment. Dab = NCC[C@H](N)C(=O)O; NHBn = c1ccc(CN*)cc1; βAla = NCCC(=O)O

Turning to `NCCC(=O)N1CCC[C@H]1C(=O)N[C@@H](CCN)C(=O)NCc1ccccc1` [Syn-Ake, H-β-Ala-Pro-Dab-NHBzl] (H-[βAla]-Pro-[Dab]-NHBn), the pIC50 in data set [1] was 3.74. Also, the “decrease of depth of wrinkles on foreheads” value in the data set on mimic wrinkles (cream containing 4% Syn-Ake, 28-day application, volunteers) is “up to 52%”.

Turning to “Ac-Glu-Glu-Met-Gln-Arg-Arg-NH2 (Ac-EEMQRR-NH2) [argireline, cosmetic hexapeptide repeating a fragment of SNAP 25]”, the “decrease in the depth of mimic wrinkles” value in the data set with mimic wrinkles (cream containing 10% argireline, topical 30-day use, volunteers) is 30%. Turning to “DNWWPKPPHQGPRPPRPRPKP [azemiopsin, reference compound]”, in data set [1] (50 μM, 20 μM acetylcholine (FIG. 1)), the “blockage of the muscle receptor activity” value is listed as “Complete blockage”. As to “H-Gly-Pro-Arg-Pro-Ala-NH2 (H-GPRPA-NH2) [Vialox]”, in the data set on mimic wrinkles (setting [2]), the “reduction of skin roughness” value was “up to 47%” and the “reduction of wrinkle size” value was “up to 49%”. Consider H-Tyr-D-Ala-Gly-Phe-Leu-OH [Leuphasyl], for which the “enhancement of argireline effect” value in the data set with mimic wrinkles (Leuphasyl in combination with argireline) was 1.5 fold.

Consider “H-WWPKP-OH [SEQ ID NO: 1, H-Trp-Trp-Pro-Lys-Pro-OH]”, for which, in data set [1] (150 μg/ml (FIG. 2)), the “inhibition of acetylcholine induced currents, comparison of overlapping pentapeptide fragments of azemiopsin” value is “most active”. Moreover, the “acute toxicity after intraperitoneal administration” value in the data set on male Balb mice was “did not reveal any toxic effects”; in the data set on male Balb mice (listed as SEQ ID NO:1), “does not exhibit toxicity”. Further, the “acute toxicity per os (administration into the stomach)” value with male Balb mice is listed as “no toxic effect was observed”; with male Balb mice (listed as SEQ ID NO:1), “does not exhibit toxicity”.

On to “H-WYPKP-NH2 [SEQ ID NO: 42, H-Trp-Tyr-Pro-Lys-Pro-NH2]”, for which the pIC50 in data set [1] is 4.64. The “times more functionally active than commercial analogue Syn-Ake” value in data set [1] (ratio of IC50 values) is recorded as “eight”. PKPWW: the “inhibiting activity towards the muscle receptor, retrosequences compared with initial Az3 and [Tyr2]Az3” value in data set [1] is “reduced”. On the same count and under the same terms, with PKPYW the entry was “reduced”.
